Measurements as given in patent publication US20250041415A1, “CYTOTOXIC INNATE LYMPHOID CELL AND USES THEREOF” (Umoja Biopharma, Inc., priority 2021, published 2025).

How the values were obtained:
[1] = test system: common lymphoid progenitors (iPSC line WTC11); experiment: RACR-signaling replacing common gamma chain cytokines in CLP to CIL differentiation; assay type: cell-based, human; conditions: 4 nM
[2] = test system: Vδ2+ T cells transduced with RACR-FRB-mCherry; experiment: RACR-expansion of blood-derived Vδ2+ T cells; assay type: cell-based, human; conditions: 10 nM, days 14 and 21
Protocol: On day 14, an aliquot of the cells was collected and washed, stained for V32, and RACR transduction was measured by mCherry. Percent Vδ2+ RACR+ cells, as well as number of transduced V32+ cells measured by counting beads was assessed by detection of V82 stain and mCherry via flow cytometry. Similarly, on day 21, an aliquot of cells was again measured for percent and number of Vδ2+ RACR+ cells via flow cytometry.

[3] = test system: iPSC-derived lymphoid progenitor and precursor cells; experiment: RACR-driven differentiation and expansion of iCIL cells from Day 26 lymphoid progenitors; assay type: cell-based, human; conditions: AP21967 100 nM, no other cytokine
Excerpt: The RACR-system was utilized for differentiation to iPSC-derived CIL cells (iCIL cells). The iPSC cell line ATCC-BXS0117 (ATCC #ACS-1031) was differentiated into lymphoid progenitors through the STEMdiff NK cell kit ([…]® Technologies, #100-0170) as described in Example 2 above, up until the Day 26 timepoint. The percentage of cells containing common lymphoid progenitors (CD45+/CD5+/CD7+), CIL precursors (CD45+/CD5−/CD7+), and early CIL cells (CD45+/CD5−/CD7+/CD56+) is seen in FIG. 3D with ˜50% of the cells presenting as CIL precursors and ˜25% of total cells presenting as early CIL cells. […] Activation beads (#130-094-483) were added to cells at a 2:1 ratio and cells were placed in 37° C. incubator overnight to increase transduction of cells.
The cells were engineered with a polynucleotide encoding the RACR synthetic cytokine as described in Example 1, a Tag (anti-FITC) CAR (SEQ ID NO: 13), and an FRB domain for expression of FRB as a diffusible soluble protein in the engineered cell, in which the components were separated by a cleavable linker. The polynucleotide construct payload is designated Tag (anti-FITC) CAR-P2A-FRB-P2A-RACR. […] An aliquot of cells was collected weekly, counted on the Vicell Blu automated cell counter, and stained for CD16 clone 3G8, CD56 clone HCD56, CD45 clone 2D1. […]

[4] = test system: PSMA-positive human prostate cancer cells; conditions: DUPA-(99m)Tc; cited from earlier work

Row | Compound | percent of RACR-CAR+ CD56+ cells ([1]; Day 40, all four media conditions) | fold change in RACR-CAR+ cells ([1]; media with UM729 alone (None)) | percentage and total number of Vδ2+ RACR+ cells [2] | expansion (total number of TagCAR positive cells) [3] | Kd [4] [µM]
1 | CO[C@@H]1C[C@H](C[C@@H](C)C2CC(=O)[C@H](C)/C=C(\C)[C@@H](O)[C@@H](OC)C(=O)[C@H](C)C[C@@H](C)/C=C/C=C/C=C(\C)[C@H](c3c[nH]c4c(C)cccc34)C[C@H]3CC[C@@H](C)[C@@](O)(O3)C(=O)C(=O)N3CCCC[C@H]3C(=O)O2)CC[C@@H]1O (some centres unmarked) [AP21967] | increase in the percent of RACR-CAR+ CD56+ cells | largest fold change | increased in both percentage and total number of cells | sufficient to drive iCIL expansion | –
2 | O=C(O)CC[C@H](NC(=O)N[C@@H](CCC(=O)O)C(=O)O)C(=O)O [DUPA] | – | – | – | – | 0.014
